In ChEMBL document CHEMBL3784972, “Optimization of N'-(arylsulfonyl)pyrazoline-1-carboxamidines by exploiting a novel interaction site in the 5-HT6 antagonistic binding pocket” (Bioorg Med Chem Lett, 2016):

Experiments:
[1] = biological target: T1, 5-hydroxytryptamine receptor 6 (Homo sapiens, UniProt P50406); assay: Displacement of [3H]-N-Methyl-Lysergic acid diethylamide from human 5-HT6 receptor expressed in CHO cells after 30 mins by liquid scintillation counting analysis; assay type: cell-based
[2] = biological target: T1, 5-hydroxytryptamine receptor 6; assay: Antagonist activity at human recombinant 5-HT6 receptor expressed in CHO cells assessed as inhibition of agonist induced intracellular calcium levels by aequorin assay; assay type: functional, cell-based; conditions: read-out: pA2 (converted)
LLC-PK1 = conditions: pig
Description: Permeability across pig LLC-PK1 cells expressing MDR assessed as membrane passage at 1 ug/ml after 3 hrs by LC/MS analysis

MDR = assay: in vitro; conditions: pig, LLC-PK1
Description: Permeability across pig LLC-PK1 cells expressing MDR assessed as ratio of bottom to top transport over top to bottom transport at 1 ug/ml after 3 hrs by LC/MS analysis

in vitro [3] = conditions: Sprague Dawley, rat, hepatocytes
in vitro [4] = conditions: human, hepatocytes
[5] = biological target: Voltage-gated inwardly rectifying potassium channel KCNH2 (Homo sapiens, UniProt Q12809); assay: Inhibition of human ERG
Dopamine receptor = assay: Binding affinity to dopamine receptor (unknown origin); assay type: protein assay, Homo sapiens
Cannabinoid receptor = Cannabinoid receptor (Homo sapiens, UniProt P34972+P21554); assay: Binding affinity to Cannabinoid receptor (unknown origin); assay type: protein assay
[6] = Binding affinity to Muscarinic receptor (unknown origin); design: species or system Homo sapiens
[7] = Binding affinity to alpha adrenergic receptor (unknown origin); design: species or system Homo sapiens
[8] = Lipophilicity, log D of the compound at pH 7; assay type: physicochemical; conditions: buffer
[9] = Tmax in rat plasma at 10 mg/kg, po; assay type: ADME, organism-based
[10] = Tmax in rat CNS at 10 mg/kg, po; assay type: ADME, organism-based
[11] = Clearance in rat at 10 mg/kg, po; assay type: ADME, organism-based; conditions: in vivo
[12] = Oral bioavailability in rat at 10 mg/kg; assay type: ADME, organism-based; conditions: in vivo
[13] = Ratio of drug uptake in rat CNS to plasma at 10 mg/kg, po; assay type: ADME, organism-based
[14] = Fraction unbound in rat brain at 10 mg/kg, po; assay type: ADME, organism-based
Rattus norvegicus = assay: Inhibition of cognitive impairment in po dosed rat administered 0.5 hrs before testing; assay type: functional
[15] = Cmax in rat plasma at 20 mg/kg, po; assay type: ADME, organism-based; design: dose 20 mg/kg, route oral
[16] = biological target: Serotonin (5-HT) receptor; assay: Binding affinity to 5-HT receptor (unknown origin); assay type: protein assay, Homo sapiens

T1 sequence (P50406 whole entry): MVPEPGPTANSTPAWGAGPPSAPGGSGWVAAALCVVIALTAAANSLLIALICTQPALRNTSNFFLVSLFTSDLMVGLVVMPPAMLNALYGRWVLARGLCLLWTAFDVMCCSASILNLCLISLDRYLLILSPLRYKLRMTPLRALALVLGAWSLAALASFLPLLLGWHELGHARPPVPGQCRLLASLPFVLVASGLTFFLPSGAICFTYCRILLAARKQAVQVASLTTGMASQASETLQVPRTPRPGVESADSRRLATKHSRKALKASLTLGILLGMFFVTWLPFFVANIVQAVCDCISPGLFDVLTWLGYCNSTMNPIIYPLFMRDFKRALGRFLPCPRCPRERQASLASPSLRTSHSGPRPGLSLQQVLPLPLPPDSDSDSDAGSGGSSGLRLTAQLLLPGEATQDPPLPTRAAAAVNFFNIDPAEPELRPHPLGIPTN
Sequence of Voltage-gated inwardly rectifying potassium channel KCNH2 (Q12809 whole entry): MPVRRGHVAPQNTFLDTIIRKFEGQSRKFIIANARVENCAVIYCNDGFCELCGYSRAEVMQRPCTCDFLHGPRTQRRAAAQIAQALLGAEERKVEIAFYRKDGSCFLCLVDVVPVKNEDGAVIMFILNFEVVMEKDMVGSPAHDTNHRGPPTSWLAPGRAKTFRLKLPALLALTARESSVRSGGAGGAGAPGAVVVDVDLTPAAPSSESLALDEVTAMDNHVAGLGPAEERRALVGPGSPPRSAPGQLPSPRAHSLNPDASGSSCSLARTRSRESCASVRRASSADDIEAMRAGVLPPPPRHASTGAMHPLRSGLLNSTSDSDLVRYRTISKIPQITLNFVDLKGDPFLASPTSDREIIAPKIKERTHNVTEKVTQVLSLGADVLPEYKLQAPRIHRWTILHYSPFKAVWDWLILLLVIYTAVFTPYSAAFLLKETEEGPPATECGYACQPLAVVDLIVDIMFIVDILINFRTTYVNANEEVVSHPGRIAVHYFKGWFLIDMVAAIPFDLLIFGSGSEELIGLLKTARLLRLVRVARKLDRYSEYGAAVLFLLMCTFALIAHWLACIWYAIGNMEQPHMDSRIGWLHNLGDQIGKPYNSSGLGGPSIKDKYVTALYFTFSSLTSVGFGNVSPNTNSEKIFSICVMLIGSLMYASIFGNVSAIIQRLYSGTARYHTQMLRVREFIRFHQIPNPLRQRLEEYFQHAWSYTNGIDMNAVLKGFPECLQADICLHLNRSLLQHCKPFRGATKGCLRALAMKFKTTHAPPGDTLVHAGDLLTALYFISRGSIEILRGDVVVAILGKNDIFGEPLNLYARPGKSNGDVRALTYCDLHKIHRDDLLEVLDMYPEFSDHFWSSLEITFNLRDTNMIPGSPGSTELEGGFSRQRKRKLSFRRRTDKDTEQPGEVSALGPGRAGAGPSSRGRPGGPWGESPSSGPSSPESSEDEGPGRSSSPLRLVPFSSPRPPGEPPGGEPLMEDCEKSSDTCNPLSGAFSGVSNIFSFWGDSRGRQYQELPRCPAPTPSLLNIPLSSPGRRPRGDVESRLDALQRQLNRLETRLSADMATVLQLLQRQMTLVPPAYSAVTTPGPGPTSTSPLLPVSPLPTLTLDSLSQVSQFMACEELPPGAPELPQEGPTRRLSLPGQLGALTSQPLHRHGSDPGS

Row | SMILES | Ki [1] [nM] | Kb [2] [nM] | permeability (LLC-PK1; llc-pk1, 3 h, at 1 µg/mL) [%] | efflux ratio at 3 h, 1 ug/ml (MDR) | hepatocyte CLint (in vitro [3]) [µL/min/1e6 cells] | hepatocyte CLint (in vitro [4]) [µL/min/1e6 cells] | further results
1 | CCN/C(=N\S(=O)(=O)c1ccc(N)c(Cl)c1)N1CC(CC)C=N1 (configuration not stated) | 1.5 | 0.794 | 38.5 | 1.6 | 87 | 10 | –
2 | CCN/C(=N\S(=O)(=O)c1ccc(N)cc1)N1CC2(C=N1)CCCC2 | – | 3.98 | 35.1 | 2.9 | 33 | 8 | IC50 [5]: > 10 µM; Ki (Dopamine receptor): > 1000 nM; Ki (Cannabinoid receptor): > 1000 nM; Ki [6]: > 1000 nM; Ki [7]: > 1000 nM; logD [8]: 1; Tmax [9]: 30 min; Tmax [10]: 30 min; CL/F [11]: 26 mL/min/kg; bioavailability [12]: 18%; Kp [13]: 0.1; fraction unbound [14]: 0.31; LED (Rattus norvegicus): 20 mg/kg; Cmax [15]: 1100 ng/mL; Ki [16]: > 1000 nM
3 | CCN/C(=N\S(=O)(=O)c1cccc(O)c1)N1CC2(C=N1)CCCC2 | 18.5 | 7.94 | 40.7 | 1.1 | – | – | –
4 | CCN/C(=N\S(=O)(=O)c1ccc2[nH]ccc2c1)N1CC2(C=N1)CCCC2 | 4.8 | 0.316 | – | – | 87 | 11 | –
5 | CCN/C(=N\S(=O)(=O)c1cccc(Cl)c1)N1N=CCC1c1ccc(O)cc1 (configuration not stated) | 251 | > 1000 | 34.9 | 4.9 | – | – | –
6 | CCN/C(=N\S(=O)(=O)c1cccc(Cl)c1)N1CC(C)(C)C=N1 | – | – | 41 | – | – | – | –
7 | CCN/C(=N\S(=O)(=O)c1ccc2[nH]c(C(F)(F)F)cc2c1)N1CC(C)(C)C=N1 | 160 | > 1000 | – | – | 87 | 22 | –
8 | CCN/C(=N\S(=O)(=O)c1cc(O)cc(Cl)c1)N1CC2(C=N1)CCCC2 | 6.1 | 0.0501 | – | – | – | 107 | –
9 | CCN/C(=N\S(=O)(=O)c1cccc(Cl)c1)N1N=CCC1c1ccccc1 (configuration not stated) | – | – | – | – | – | – | permeability (LLC-PK1; LLC-PK1, 3 h): 38.5%
10 | CCN/C(=N\S(=O)(=O)c1ccc(N(C)C)cc1)N1CC(CC)C=N1 (configuration not stated) | 206 | > 1000 | 38.2 | 1.4 | – | – | –
11 | CCN/C(=N\S(=O)(=O)c1ccc(OC)c(Cl)c1)N1CC2(C=N1)CCCC2 | > 1000 | > 1000 | 39.4 | 1.3 | – | – | –
12 | CCN/C(=N\S(=O)(=O)c1ccc(N)cc1)N1CC(CC)C=N1 (configuration not stated) | 7.2 | 3.98 | 31.6 | 2.4 | 34 | 4 | –
13 | CCN/C(=N\S(=O)(=O)c1ccc(N)cc1)N1CC(C)(C)C=N1 | 20.6 | – | 31.6 | 3 | 20 | < 1.4 | –
14 | CCN/C(=N\S(=O)(=O)c1ccc2cc[nH]c2c1)N1CC(CC)C=N1 (configuration not stated) | 31.6 | 79.4 | 37.7 | 2.8 | – | – | –
15 | CCN/C(=N\S(=O)(=O)c1cc(Cl)cc(OC)c1)N1CC2(C=N1)CCCC2 | 47.5 | 63.1 | – | – | – | – | –
